Where two headings read alike, the source gives them in different places.
Experiments:
Assay type in all cases: in vivo
[1] = test system: Phytophthora infestans; test: whole plant or invertebrate; conditions: for Test D disease rating (100 = 100% disease control, 0 = no disease control): tomato late blight
[2] = test system: Plasmopara viticola; test: Test B: grape downy mildew, spray 24 h after inoculation (disease rating, 100 = 100% disease control)
How it was run: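 Grape seedlings were inoculated with Plasmopara viticola and held 24 h saturated at 20 °C, then sprayed to run-off with compound suspension (acetone/water with 250 ppm Trem 014; 200 ppm ≈ 500 g/ha). After 5 days at 20 °C and 24 h saturation, disease was rated from 0 to 100% control versus untreated.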

[3] = test system: Phytophthora infestans; test: whole plant or invertebrate; conditions: for Test C disease rating (100 = 100% disease control, 0 = no disease control): tomato late blight
[4] = test system: Erysiphe graminis f. sp. tritici; test: Test E: wheat powdery mildew, spray the day before inoculation (disease rating, 100 = 100% disease control)
How it was run: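 Wheat seedlings sprayed to run-off with compound suspended in acetone/water 50/50 with 250 ppm Trem 014 (200 ppm equivalent to 500 g/ha); inoculated next day with Erysiphe graminis f. sp. tritici spore dust. Kept 7 days at 20° C, then rated 0–100% disease control versus controls.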

[5] = spray the day before inoculation, tested at 10 ppm
[6] = spray 17 h after inoculation, compounds without asterisk (not 40 or 10 ppm)
[7] = spray 24 h after inoculation, compounds without asterisk (not 40 or 10 ppm)
[8] = spray the day before inoculation, compounds without asterisk (not 40 or 10 ppm)
[9] = spray 17 h after inoculation, tested at 40 ppm
[10] = spray 24 h after inoculation, tested at 40 ppm
[11] = spray the day before inoculation, tested at 40 ppm

SMILES	Test D disease rating (100 = 100% disease control, 0 = no disease control) [1, 6]	Test B disease rating (100 = 100% disease control, 0 = no disease control) [2, 7]	Test C disease rating (100 = 100% disease control, 0 = no disease control) [3, 8]	Test E disease rating (100 = 100% disease control, 0 = no disease control) [4, 8]	also measured
Cc1cc(C(F)(F)F)nn1CC(=O)N1CCC(c2nc(C(=O)N(C)C3CSCc4ccccc43)cs2)CC1 (centres unmarked) [compound 185]	–	–	–	–	Test D disease rating (100 = 100% disease control, 0 = no disease control) ([1]; spray 17 h after inoculation, tested at 10 ppm): 98%; Test B disease rating (100 = 100% disease control, 0 = no disease control) ([2]; spray 24 h after inoculation, tested at 10 ppm): 99%; Test C disease rating (100 = 100% disease control, 0 = no disease control) [3, 5]: 100%; Test E disease rating (100 = 100% disease control, 0 = no disease control) [4, 5]: 0%
Cc1cc(C(F)(F)F)nn1CC(=O)N1CCC(c2cc(C(=O)N(C)[C@@H]3CCCc4ccccc43)no2)CC1 [compound 202]	99%	97%	100%	0%	–
Cc1cc(C(F)(F)F)nn1CC(=O)N1CCC(c2nc(C(=O)N(C)C3CCCc4cc(Cl)ccc43)cs2)CC1 (centres unmarked) [compound 201]	–	–	–	–	Test D disease rating (100 = 100% disease control, 0 = no disease control) [1, 9]: 99%; Test B disease rating (100 = 100% disease control, 0 = no disease control) [2, 10]: 98%; Test C disease rating (100 = 100% disease control, 0 = no disease control) [3, 11]: 100%; Test E disease rating (100 = 100% disease control, 0 = no disease control) [4, 11]: 0%
Cc1cc(C(F)(F)F)nn1CC(=O)N1CCC(c2nc(C(=O)N(C)C3c4ccccc4CC3O)cs2)CC1 (centres unmarked) [compound 207]	99%	36%	99%	0%	–
C[C@@H](NC(=O)c1csc(C2CCN(C(=O)Cc3cccc(Br)c3)CC2)n1)c1cccc(C(F)(F)F)c1 [compound 277]	–	–	–	–	Test D disease rating (100 = 100% disease control, 0 = no disease control) ([1]; sprayed 17 h after inoculation, unmarked compounds (no asterisk, not 40 or 10 ppm)): 0; Test B disease rating (100 = 100% disease control, 0 = no disease control) ([2]; sprayed 24 h after inoculation, unmarked compounds (no asterisk, not 40 or 10 ppm)): 15; Test C disease rating (100 = 100% disease control, 0 = no disease control) ([3]; sprayed the day before inoculation, unmarked compounds (no asterisk, not 40 or 10 ppm)): 9; Test E disease rating (100 = 100% disease control, 0 = no disease control) ([4]; sprayed the day before inoculation, 7 days at 20° C., unmarked compounds (no asterisk, not 40 or 10 ppm)): 0
Cc1cc(C(F)(F)F)nn1CC(=O)N1CCCN(c2nc(C(=O)N(C)[C@@H]3CCCc4ccccc43)cs2)CC1.Cl [compound 242]	73%	16%	100%	0%	–
Cc1cc(C(F)(F)F)nn1CC(=O)N1CCN(c2nc(C(=O)N(C)[C@@H]3CCCc4ccccc43)ns2)CC1 [compound 224]	–	–	–	–	Test D disease rating (100 = 100% disease control, 0 = no disease control) [1, 9]: 99%; Test B disease rating (100 = 100% disease control, 0 = no disease control) [2, 10]: 93%; Test C disease rating (100 = 100% disease control, 0 = no disease control) [3, 11]: 100%; Test E disease rating (100 = 100% disease control, 0 = no disease control) [4, 11]: 0%
Cc1ccc(C)c(CC(=O)N2CCC(c3nc(C(=O)N(C)C4CCc5ccccc5C4)cs3)CC2)c1 (centres unmarked) [compound 98]	0%	0%	84%	0%	–
CC(C)c1nccn1CC(=O)N1CCC(c2nc(C(=O)N(C)[C@H](C)c3ccccc3)cs2)CC1 [compound 139]	0%	0%	0%	0%	–
Cc1ccc(C)c(CC(=O)N2CCC(c3nc(C(=O)N(C)[C@@H]4CCCc5ccccc54)co3)CC2)c1 [Compound 153, 2-[1-[(2,5-dimethylphenyl)acetyl]-4-piperidinyl]-N-methyl-N-[(1R)-1,2,3,4-tetrahydro-1-naphthalenyl]-4-oxazolecarboxamide]	–	–	–	–	pest or weed control at 40 ppm ([1]; Phytophthora infestans, in Solanum lycopersicum, topical, 96 h, read-out: Test D disease rating (100 = 100% disease control, 0 = no disease control)): 98%; pest or weed control at 40 ppm ([2]; Plasmopara viticola, 144 h, spray 24 h after inoculation, tested at 40 ppm, read-out: Test B disease rating (100 = 100% disease control, 0 = no disease control)): 99%; pest or weed control at 40 ppm ([3]; Phytophthora infestans, in Solanum lycopersicum, 144 h, read-out: Test C disease rating (100 = 100% disease control, 0 = no disease control)): 100%; pest or weed control at 40 ppm ([4]; Blumeria graminis, topical, 168 h, spray the day before inoculation, tested at 40 ppm, read-out: Test E disease rating (100 = 100% disease control, 0 = no disease control)): 0%
Cc1ccn(CC(=O)N2CCC(c3nc(C(=O)N(C)[C@H](C)c4ccccc4)cs3)CC2)n1 [compound 72]	66%	1%	91%	0%	–
